Data on 4 compounds can be found in paper PMC4154066 (Chemical research in toxicology, 2013).

Test [1] has as its system HepG2 cells. Description: cells. It counts as cell-based, Human. As to conditions: for Compound potency (IC50) LDH Release 5 h: HepG2, 5 h treatment; for Compound potency (IC50) LDH Release 5 h / Compound potency (IC50) LDH Release 1 h: mean ± SD, 3 independent experiments; for Compound potency (IC50) LDH Release 1 h: HepG2, 1 h treatment.
Test [2] has as its system HepG2 cells. Briefly: Oxygen consumption rate. Particulars: for Relative percentage OCR 30 Sec: HepG2, 30 sec after compound at its MMP IC50; for Relative percentage OCR 30 Sec / Relative percentage OCR 1 h: basal OCR = 100%, mean ± SD; for Relative percentage OCR 1 h: HepG2, 1 h after compound at its MMP IC50; for Effect on OCR / FCCP-uncoupled OCR (in words): HepG2, compound at its MMP IC50, 30 sec and 1 h, then FCCP. The format is cell-based, Human.

Test [3] deals with caspase 3/7. Particulars: HepG2, 16 h; cited from earlier work.
The test system of test [4] is caspase 9. Particulars: HepG2, 5 h; cited from earlier work.
Test [5] deals with mitochondrial membrane potential in HepG2 cells. Briefly: MMP assay, powder compound confirmation, fluorescence plate reader. The format is cell-based, Human.
Test [6] has the same test system. Description: qHTS MMP assay, primary screen. The format is cell-based, Human. (qHTS replaces the single test concentration by a dilution series.)

For orientation: IC50 means the concentration that gives 50% inhibition.

Turning to `Cl.N=C1C=CC(=C(c2ccc(N)cc2)c2ccc(N)cc2)C=C1` [Basic red 9 (p-Rosaniline HCl), p-Rosaniline HCl], in test [1], the “Compound potency (IC50) LDH Release 5 h” value was “negative”. Moreover, in test [2], the “Relative percentage OCR 30 Sec” value is on record as −9.78 ± 16.86% and the “Relative percentage OCR 1 h” value is recorded as 35.74 ± 2.42%. The “induction of caspase 3/7” value in test [3] is reported as “negative”.
Turning to `CN(C)c1ccc(C(=C2C=CC(=[N+](C)C)C=C2)c2ccc(N(C)C)cc2)cc1` [Hexamethyl-p-rosaniline chloride], in test [1], the “Compound potency (IC50) LDH Release 1 h” value is listed as “Inconclusive” and the “Compound potency (IC50) LDH Release 5 h” value is on record as “cytotoxic”. Moreover, the IC50 in test [1] (Homo sapiens, HepG2, 5 h, read-out: Compound potency (IC50) LDH Release 5 h) was determined as 56.1 µM. Moreover, in test [2], the “Relative percentage OCR 30 Sec” value turned out to be 132.56 ± 3.88%, the “Relative percentage OCR 1 h” value is 105.01 ± 1.65% and the “Effect on OCR / FCCP-uncoupled OCR (in words)” value is recorded as “immediate uncoupling”. Further, the “activation of caspase 9” value in test [4] was “seems to activate caspase 9”. The “induction of caspase 3/7” value in test [3] is recorded as “induced caspase 3/7”.
On to `COc1cc(C2Oc3cc([C@H]4Oc5cc(O)cc(O)c5C(=O)[C@@H]4O)ccc3OC2CO)ccc1O` (stereo partly shown) [Silibinin], for which the “Compound potency (IC50) Fluorescence readout 5 h” value in test [5] (HepG2, powder compound confirmation, 5 h, mean ± SD, 4 independent experiments) is on record as “weakly active”. The Emax in test [5] (Homo sapiens, HepG2, 5 h, read-out: efficacy (maximal response)) was 38.1%. Further, in test [2], the “Relative percentage OCR 30 Sec” value turned out to be 92.67 ± 0.69%, the “Relative percentage OCR 1 h” value is 95.66 ± 0.46% and the “Effect on OCR / FCCP-uncoupled OCR (in words)” value was “significantly suppressed the FCCP uncoupled rates”.
As to `CN(C)c1ccc(C(=C2C=CC(=[N+](C)C)C=C2)c2ccccc2)cc1.CN(C)c1ccc(C(=C2C=CC(=[N+](C)C)C=C2)c2ccccc2)cc1.O=C(O)C(=O)O.O=C([O-])C(=O)O.O=C([O-])C(=O)O` [Malachite green oxalate], in test [1], the “Compound potency (IC50) LDH Release 1 h” value was “Inactive” and the “Compound potency (IC50) LDH Release 5 h” value is on record as “cytotoxic”. Moreover, in test [6], the “Primary screen outcome (MMP decrease) 1 h” value is “positive” and the “Primary screen outcome (MMP decrease) 5 h” value is reported as “positive”. Besides, in test [2], the “Relative percentage OCR 30 Sec” value came to 163.81 ± 17.5%, the “Relative percentage OCR 1 h” value was found to be 97.14 ± 3.09% and the “Effect on OCR / FCCP-uncoupled OCR (in words)” value is on record as “immediate uncoupling”. In test [3], the “induction of caspase 3/7” value is given as “induced caspase 3/7”.
